Data taken from ChEMBL document CHEMBL2440079, “Synthesis and in vitro evaluation of a novel radioligand for αvβ3 integrin receptor imaging: [18F]FPPA-c(RGDfK)” (Bioorg Med Chem Lett, 2013).
The source made the active and inactive calls. The rule behind the calls is not given here.

Key:
Integrin alpha-V/beta-3 [1] = target: T1, Integrin alpha-V/beta-3 (Homo sapiens, UniProt P05106+P06756); assay: Activation of alphaVbeta3 integrin in HUVEC at 10 uM by flow cytometry; format: protein-complex assay
HEK-293T = assay: Selectivity ratio of IC50 for soluble truncated human recombinant 6His-tagged alpha5beta1 and integrins were expressed in HEK293T cells to IC50 for soluble truncated human recombinant Fc-tagged alphaVbeta3 and integrins; format: cell-based
Integrin alpha-V/beta-3 [2] = target: T1, Integrin alpha-V/beta-3; assay: Binding affinity to soluble truncated human recombinant Fc-tagged alphaVbeta3 and integrins were expressed in HEK293T cells after 2 hrs by competition ELISA-like assay; format: cell-based, HEK-293T
Integrin alpha-5/beta-1 = Integrin alpha-5/beta-1 (Homo sapiens, UniProt P05556+P08648); assay: Binding affinity to soluble truncated human recombinant 6His-tagged alpha5beta1 and integrins were expressed in HEK293T cells after 2 hrs by competition ELISA-like assay; format: cell-based, HEK-293T

Activity (Integrin alpha-V/beta-3 [1])	IC50 (Integrin alpha-V/beta-3 [2])	IC50 (Integrin alpha-5/beta-1)	Compound	Ratio IC50 (HEK-293T)
Active			N=C(N)NCCC[C@@H]1NC(=O)[C@H](CCCCn2cc(CCC(=O)Nc3ccc(F)cc3)nn2)NC(=O)[C@@H](Cc2ccccc2)NC(=O)[C@H](CC(=O)O)NC(=O)CNC1=O	300
	10.6 nM	3650 nM	NC(N)=NCCC[C@@H]1NC(=O)[C@H](CCCCn2cc(CCC(=O)Nc3ccc(F)cc3)nn2)NC(=O)[C@@H](Cc2ccccc2)NC(=O)[C@H](CC(=O)O)NC(=O)CNC1=O	
